Test results: article PMC4775224 (2015)

Test system: TPP riboswitch aptamer (wtAtRs1 + wtAtRs2 + wtAtRs3, splint-ligated) (RNA, riboswitch, amino-modified U (5-N-U) at 59 (U replaces G88 in paper numbering); amino-modified U (5-LC-N-U) at 123 (U25 in paper numbering)) AUCGAGAGGGACACGGGGAAACACCACCAUAUAUGCACCAGGGGUGCUUGAACCAGGAUAGCCUGCGAAAAGGCGGGCUAUCCGGGACCAGGCUGAGAAAGUCCCUUUGAACCUGAACAGGGUAAUGCCUGCGCAGGGAGUGUGCUAACAAGGUCACCAUCAUCCUGACUAGAGUCCUUGG
Experiment: optical-trap force spectroscopy with smFRET
Settings: 130 mM KCl, 4 mM Mg2+, 50 mM HEPES pH 7.5, 1 mM EDTA, oxygen scavengers

Cc1ncc(C[n+]2csc(CCOP(=O)(O)OP(=O)(O)O)c2C)c(N)n1
binding (5 µM, 50 µM and 2 mM TPP, weak then strong state): yes

Cc1ncc(C[n+]2csc(CCOP(=O)(O)O)c2C)c(N)n1
binding (2 mM TMP (saturating), arms not docked): yes

Cc1ncc(C[n+]2csc(CCO)c2C)c(N)n1
binding (2 mM thiamine (saturating), arms not docked): yes
